Laboratory results reported in patent US4673562A, “Bisamide bisthiol compounds useful for making technetium radiodiagnostic renal agents” (The Children's Medical Center Corporation, priority 1983, dated 1987).
Several values for one entry are separate records, joined by “and”; a condition that tells them apart may be missing. Identical values can stand only once.

Experiments:
[1] = Gamma camera: % total dose in bladder, 99mTc complexes coinjected with 131I-OIH into normal dogs (Tables I, III); assay type: in vivo, dog; set-up: Comparison of % total dose in bladder versus 131I-OIH, column headed by drawing 19 (± s.d.): unit not given here; conditions: for % Total Dose In Bladder (gamma camera data): single animals; for % total dose in bladder at 35 minutes, Average 99mTc (± s.d) / Comparison of % total dose in bladder versus 131I-OIH, column headed by drawing 19 (± s.d.): Table III; for % total dose in bladder at 35 minutes, Average 99mTc (± s.d): average of dogs; for Comparison of % total dose in bladder versus 131I-OIH, column headed by drawing 19 (± s.d.): dogs; for rate of excretion in the urine: versus 131I-OIH
Description: The two fractions collected from the products of synthesis in each case were denoted (XVIA), (XVIB), (XXXIA), and (XXXIB), respectively.
Images were recorded at 1, 5, 10, 15, 20, 25, 30 and 35 minutes after administration. The initial image at one minute was used to collect 750,000 counts. All subsequent images were exposed for the same length of time as this first image, and the number of counts noted. […] In this way, the counts collected in the camera images cound be related to absolute activity levels (mCi or μCi). The animals were then observed until the urine samples were free of ^99m Tc.
The values represent the calculated % total dose in the camera region of interest set over the bladder.

[2] = Average % total dose in urine samples of dogs (Table II); assay type: in vivo, dog; conditions: mean
From the text: The diastereomeric ^99m Tc complexes formed by reduction of pertechnetate in the presence of (2-benzoylthioacetyl)- glycyl-(S-benzoyl)-cysteine methyl ester (compound XVI) and N-2-(benzoylthio)ethyl)-N'-1-carbomethoxy-(2-benzoylthio)ethyl]oxamide (compound XXXI) were synthesized and separated by high pressure liquid chromatography. The two fractions collected from the products of synthesis in each case were denoted (XVIA), (XVIB), (XXXIA), and (XXXIB), respectively.
Samples of each fraction were mixed with appropriate amounts of ^131 I-OIH and coinjected into normal dogs placed under a gamma camera. Images were recorded at 1, 5, 10, 15, 20, 25, 30 and 35 minutes after administration. The initial image at one minute was used to collect 750,000 counts. All subsequent images were exposed for the same length of time as this first image, and the number of counts noted. Immediately after each count, a urine sample was drawn from the bladder via a indwelling catheter, and the ^99m Tc ANd ^131 I activity determined using an ionization chamber. In this way, the counts collected in the camera images cound be related to absolute activity levels (mCi or μCi). The animals were then observed until the urine samples were free of ^99m Tc.
In Table II can be seen the average % total dose valus observed in the urine samples collected at each time point. Also quoted in parentheses are the standard deviation and standard error of the mean.

[3] = Biodistribution in Swiss Webster albino male mice, coinjected with 131I-OIH (Tables IV, V); assay type: in vivo, mouse; conditions: for Blood, % total dose per organ ± s.d. / Intestine, % total dose per organ ± s.d. / Kidneys, % total dose per organ ± s.d. / Liver, % total dose per organ ± s.d. / Stomach, % total dose per organ ± s.d. / Urine, % total dose ± s.d.: Table V, XVI B and 131I-OIH coinjected
Description: The diastereomers (XVIA) and (XVIB) were synthesized and then isolated by high pressure liquid chromatography as described previously, and their biodistributions obtained in groups in six Swiss Webster albino male mice. […] The mice were then placed in metabolic cages to collect urine. At 10 and 120 minutes after injection, the penis was ligated, the mice killed with chloroform vapor, and the organs disected.

[4] = 5 min post injection, normal dogs, 5 min
[5] = 10 min post injection, normal dogs, 10 min
[6] = 15 min post injection, normal dogs, 15 min
[7] = 20 min post injection, normal dogs, 20 min
[8] = 25 min post injection, normal dogs, 25 min
[9] = 30 min post injection, normal dogs, 30 min
[10] = 35 min post injection, normal dogs, 35 min

Row | Structure (SMILES) | % Total Dose In Bladder (gamma camera data) [1, 4] | % Total Dose In Bladder (gamma camera data) [1, 5] | % Total Dose In Bladder (gamma camera data) [1, 6] | % Total Dose In Bladder (gamma camera data) [1, 7] | % Total Dose In Bladder (gamma camera data) [1, 8] | % Total Dose In Bladder (gamma camera data) [1, 9] | % Total Dose In Bladder (gamma camera data) [1, 10] | % total dose in bladder at 35 minutes, Average 99mTc (± s.d) ([1]; 35 min) [% total dose] | Comparison of % total dose in bladder versus 131I-OIH, column headed by drawing 19 (± s.d.) ([1]; 35 min) | rate of excretion in the urine ([1]; normal dogs) | Average % Total Dose in Urine Samples ([2]; 5 min post injection, 5 min) [% total dose] | Average % Total Dose in Urine Samples ([2]; 10 min post injection, 10 min) [% total dose] | Average % Total Dose in Urine Samples ([2]; 15 min post injection, 15 min) [% total dose] | Average % Total Dose in Urine Samples ([2]; 20 min post injection, 20 min) [% total dose] | Average % Total Dose in Urine Samples ([2]; 25 min post injection, 25 min) [% total dose] | Average % Total Dose in Urine Samples ([2]; 30 min post injection, 30 min) [% total dose] | Average % Total Dose in Urine Samples ([2]; 35 min post injection, 35 min) [% total dose] | also measured
1 | O=C(O)C1C[S][Tc-]23(=[O])[S]CC[N]2C(=O)C(=O)[N]13 (single isomer, unassigned) [XXXIA] | 5.76 % total dose and 4.12 % total dose and 0.81 % total dose | 15.30 % total dose and 12.39 % total dose and 9.87 % total dose | 22.26 % total dose and 15.99 % total dose and 16.51 % total dose | 28.21 % total dose and 21.59 % total dose and 22.50 % total dose | 32.68 % total dose and 25.47 % total dose and 27.72 % total dose | 38.08 % total dose and 30.43 % total dose and 32.34 % total dose | 41.57 % total dose and 31.19 % total dose and 34.90 % total dose | 35.89 | 46.80 | a significant difference exists between (XXXIA) and (XXXIB) | 3.56 | 12.52 | 18.25 | 24.10 | 28.62 | 33.63 | 35.89 | –
2 | O=C(O)C1C[S][Tc-]23(=[O])[S]CC[N]2C(=O)C(=O)[N]13 (single isomer, unassigned) [XXXIB] | 15.45 % total dose and 12.59 % total dose and 12.63 % total dose | 37.76 % total dose and 28.47 % total dose and 27.98 % total dose | 49.26 % total dose and 41.85 % total dose and 35.28 % total dose | 61.08 % total dose and 48.71 % total dose and 43.22 % total dose | 67.47 % total dose and 55.87 % total dose and 48.35 % total dose | 70.23 % total dose and 60.72 % total dose and 50.84 % total dose | 69.76 % total dose and 61.09 % total dose and 57.93 % total dose | 62.93 | 77.80 | a significant difference exists between (XXXIA) and (XXXIB) | 13.56 | 31.40 | 42.13 | 51.00 | 57.23 | 60.60 | 62.93 | –
3 | O=C(O)C1C[S][Tc-]23(=[O])[S]CC(=O)[N]2CC(=O)[N]13 (single isomer, unassigned) [XVIB] | 12.31 % total dose and 10.03 % total dose and 19.60 % total dose | 28.53 % total dose and 33.78 % total dose and 36.51 % total dose | 39.47 % total dose and 45.88 % total dose and 47.52 % total dose | 45.09 % total dose and 53.55 % total dose and 55.57 % total dose | 48.09 % total dose and 60.94 % total dose and 59.98 % total dose | 53.05 % total dose and 64.60 % total dose and 70.00 % total dose | 54.63 % total dose and 73.12 % total dose and 71.57 % total dose | 66.44 | 92.25 | comparable rates of excretion to each other and to OIH | 13.98 | 32.94 | 44.29 | 51.40 | 56.34 | 62.55 | 66.44 | pharmacokinetic behavior of the diastereomers ([1]; normal dogs): identical; Blood, % total dose per organ ± s.d. ([3]; 10 min): 1.47 ± 0.72 % total dose per organ; Intestine, % total dose per organ ± s.d. ([3]; 10 min): 0.48 ± 0.18 % total dose per organ; Kidneys, % total dose per organ ± s.d. ([3]; 10 min): 4.41 ± 3.6 % total dose per organ; Liver, % total dose per organ ± s.d. ([3]; 10 min): 0.79 ± 0.49 % total dose per organ; Stomach, % total dose per organ ± s.d. ([3]; 10 min): 0.06 ± 0.03 % total dose per organ; Urine, % total dose ± s.d. ([3]; 10 min): 79.32 ± 5.1 % total dose per organ; Blood, % total dose per organ ± s.d. ([3]; 120 min): 0.13 ± 0.10 % total dose per organ; Intestine, % total dose per organ ± s.d. ([3]; 120 min): 0.40 ± 0.17 % total dose per organ; Kidneys, % total dose per organ ± s.d. ([3]; 120 min): 0.08 ± 0.07 % total dose per organ; Liver, % total dose per organ ± s.d. ([3]; 120 min): 0.11 ± 0.06 % total dose per organ; Stomach, % total dose per organ ± s.d. ([3]; 120 min): 0.07 ± 0.12 % total dose per organ; Urine, % total dose ± s.d. ([3]; 120 min): 91.47 ± 1.1 % total dose per organ; clearance into the urine ([3]; mice, versus 131I-OIH): cleared rapidly into the urine at comparable rates to each other and to the radiopharmaceutical ^131 I-OIH
